From PMC10900215 (JACS Au, 2024)
Several values for one entry are separate records, joined by “and”; a condition that tells them apart may be missing. Identical values can stand only once.

Key:
[1] = target: T1, METTL3 (Homo sapiens, UniProt Q86U44); assay: Cellular degradation assay (Western blot), METTL3 in MOLM-13; type: cell-based; conditions: for MOLM-13 West. blot at 24h 2 μM comp conc. Degradation (%) of METTL3: MOLM-13, 24 h, 2 μM compound
T1 construct: METTL3–14 degradation up to 70% of the endogenous level; endogenous in cells; host or cells: MOLM-13, PC3, DU145
Procedure, shortened: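 PROTACs or 0.1% DMSO vehicle applied to cells for 24h at 37 °C, 5% CO2 in RPMI 1640 with 10% FBS; RIPA lysates run on SDS-PAGE. Western blot for METTL3 or METTL14 against GAPDH or β-actin loading controls, with fluorescent secondary antibodies and densitometry quantification.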

[2] = target: T2, ternary complex CRBN/PROTAC/METTL3–14 (Homo sapiens, UniProt Q86U44+Q96SW2); assay: FRET-based ternary complex formation assay (TCFA); type: binding; conditions: for TCFA amplitude (mean ± SEM): Hook curve amplitude, fraction of the maximum of compound 16; for ECmax (nM) ± SD: PROTAC concentration at the maximum of the signal in the TCFA; for ECmax: TCFA, peak of the Hook curve
T2 construct: methyltransferase domains (MTD) of METTL3 (residues 354–580); His6 (N, cleaved yes); made in house; host or cells: METTL3-MTD/METTL14-MTD: baculovirus/Sf9; CRBN-TBD: E. coli Rosetta (DE3), co-expressed with BirA
Procedure, shortened: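 HTRF/TR-FRET measurement of PROTAC-induced complex between GST-tagged METTL3–14 and biotinylated CRBN^TBD-Avi (10 nM final) with 0.8 nM Eu^3+ anti-GST antibody, in 50 mM HEPES pH 7.5, 150 mM NaCl, 0.1% BSA, 100 mM KF. Emission ratio used; ECmax and Hook-curve amplitude taken from Gaussian fit or highest-signal data point.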

[3] = target: T1, METTL3; assay: Cellular degradation assay (Western blot) in DU145; type: cell-based; conditions: DU145, 2 μM, 24 h
Description: (§1) MOLM-13, NOMO-1, THP-1, Kasumi-1, PC3, and DU145 cell lines were obtained from DSMZ-German Collection of Microorganisms and Cell Cultures GmbH. Cells were cultured in RPMI 1640 medium (11875093, Thermo Fisher Scientific) containing 10% FBS (16140071, Thermo Fisher Scientific) and 1% penicillin-streptomycin (15140122, Thermo Fisher Scientific) in 5% CO2 at 37 °C in a humidified incubator, with maintained cell densities at 0.5–1 × 10^6 cells/mL. All cell lines were tested negative for mycoplasma contamination (PCR-based assay by Microsynth, Switzerland).
(§2) METTL3 (and METTL14) protein degradation was monitored by Western blot. Cells were treated with the indicated concentration of PROTACs or DMSO control (0.1% (v/v)) for 24h, 37 °C with 5% CO2. Samples were then collected and lysed with RIPA buffer with added protease inhibitors (11697498001, Roche). After SDS-PAGE, proteins were transferred to a nitrocellulose membrane, blocked (with 5% milk, 0.5% BSA in TBST buffer), and incubated overnight with primary antibodies. The following antibodies were used: GAPDH (no. 2118, Cell Signaling, 1:4000), β-actin (ab8226, Abcam, 1:2000), METTL3 (ab195352, Abcam, 1:1000), and METTL14 (ab220031, Abcam, 1:1000). Membranes were scanned using an LI-COR Odyssey DLx imager after incubation with appropriate secondary antibodies (antimouse IgG IRDye 680RD (926–68072, LI-COR, 1:10000) and goat anti-Rabbit IgG IRDye 800CW (926–32211, LI-COR, 1:10000)). Densitometry was performed in Image Studio Lite software and analyzed in GraphPad Prism 9.

[4] = target: T3, METTL3-14 (Homo sapiens, UniProt Q86U44); assay: biochemical; set-up: with the full-length complex, the recombinant complex construct pFastBacDual-StrepII-GFP-TEV-METTL3-His-TEV-METTL14 was expressed; StrepII (N); GFP (N); TEV site (N); made in house; host or cells: baculovirus/Sf9 insect cells; conditions: inhibition of catalytic activity of METTL3-14, binary FRET assay
Procedure, shortened: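 Full-length human METTL3–METTL14 complex (StrepII-GFP-METTL3-His/METTL14) expressed in baculovirus/Sf9 cells and purified. Inhibition of METTL3 methyltransferase activity measured in a homogeneous time-resolved fluorescence (HTRF) enzyme assay; IC50 determined.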
Target sequence in this assay (Q86U44 whole entry): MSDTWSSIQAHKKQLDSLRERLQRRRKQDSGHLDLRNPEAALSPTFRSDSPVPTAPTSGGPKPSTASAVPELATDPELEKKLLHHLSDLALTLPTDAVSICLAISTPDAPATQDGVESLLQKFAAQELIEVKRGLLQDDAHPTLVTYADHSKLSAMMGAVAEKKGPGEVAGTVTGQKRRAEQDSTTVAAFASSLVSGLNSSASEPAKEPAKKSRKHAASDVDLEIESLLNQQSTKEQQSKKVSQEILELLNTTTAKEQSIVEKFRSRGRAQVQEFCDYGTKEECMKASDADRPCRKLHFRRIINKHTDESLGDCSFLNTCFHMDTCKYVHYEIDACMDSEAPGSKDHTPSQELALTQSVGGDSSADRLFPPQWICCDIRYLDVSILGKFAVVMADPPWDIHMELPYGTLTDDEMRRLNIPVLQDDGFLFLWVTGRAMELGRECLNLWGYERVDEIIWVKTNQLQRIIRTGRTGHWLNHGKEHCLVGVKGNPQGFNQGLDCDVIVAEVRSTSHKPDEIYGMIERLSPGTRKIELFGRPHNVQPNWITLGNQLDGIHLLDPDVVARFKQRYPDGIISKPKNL
Target sequence in this assay (Q9HCE5 whole entry, further chain): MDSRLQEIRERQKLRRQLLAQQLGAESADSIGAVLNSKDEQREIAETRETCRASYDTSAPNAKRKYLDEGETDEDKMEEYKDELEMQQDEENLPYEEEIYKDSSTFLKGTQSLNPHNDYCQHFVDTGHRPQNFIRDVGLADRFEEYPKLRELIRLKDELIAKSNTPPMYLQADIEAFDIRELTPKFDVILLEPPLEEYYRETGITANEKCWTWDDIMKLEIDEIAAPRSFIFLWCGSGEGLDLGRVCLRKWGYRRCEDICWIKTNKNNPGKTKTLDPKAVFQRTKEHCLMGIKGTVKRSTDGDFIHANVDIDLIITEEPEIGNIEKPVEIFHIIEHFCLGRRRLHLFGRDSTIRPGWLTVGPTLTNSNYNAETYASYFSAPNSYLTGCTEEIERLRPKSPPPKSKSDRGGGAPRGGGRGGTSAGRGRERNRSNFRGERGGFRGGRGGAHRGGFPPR

[5] = target: T3, METTL3-14; assay: Cellular degradation assay (Western blot) in NOMO-1; type: cell-based; set-up: METTL3–14 degradation up to 70% of the endogenous level; endogenous in cells; host or cells: MOLM-13, KASUMI-1, THP-1, NOMO-1; conditions: NOMO-1, 2 μM, 24 h
Description: as §1, §2
Target sequence in this assay (Q86U44 2-580 limits assumed): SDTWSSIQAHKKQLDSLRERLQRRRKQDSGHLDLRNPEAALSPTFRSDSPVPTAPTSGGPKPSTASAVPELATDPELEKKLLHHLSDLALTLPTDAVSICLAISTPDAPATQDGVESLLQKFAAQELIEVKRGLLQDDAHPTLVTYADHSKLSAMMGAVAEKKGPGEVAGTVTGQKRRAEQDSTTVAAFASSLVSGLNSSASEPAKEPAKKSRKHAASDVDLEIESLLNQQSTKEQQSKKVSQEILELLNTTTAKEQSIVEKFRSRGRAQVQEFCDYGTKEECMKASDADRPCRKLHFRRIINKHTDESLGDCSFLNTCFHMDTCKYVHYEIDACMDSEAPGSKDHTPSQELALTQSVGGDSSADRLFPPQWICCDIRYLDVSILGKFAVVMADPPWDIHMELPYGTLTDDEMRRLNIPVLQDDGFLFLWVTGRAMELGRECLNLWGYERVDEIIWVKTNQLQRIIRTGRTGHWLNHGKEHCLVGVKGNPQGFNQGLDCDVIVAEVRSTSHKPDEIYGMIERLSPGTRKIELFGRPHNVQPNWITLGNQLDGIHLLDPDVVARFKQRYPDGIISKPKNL
Target sequence in this assay (Q9HCE5 whole entry partner): as the sequence (Q9HCE5 whole entry, further chain) above

[6] = target: T4, Cereblon (CRBN) (Homo sapiens, UniProt Q96SW2); assay: Cellular thermal shift assay (CETSA) in MOLM-13, Cereblon; type: cell-based; conditions: MOLM-13, 54 °C
T4 construct: endogenous in cells; host or cells: MOLM-13

[7] = target: T1, METTL3; assay: Cellular degradation assay (Western blot) in PC3; type: cell-based; conditions: PC3, 2 μM, 24 h
Description: as §1
as §2, with “Membranes were scanned using an LI-COR Odyssey DLx imager after incubation with appropriate secondary antibodies (antimouse IgG IRDye 680RD (926–68072, LI-COR, 1:10000) and goat anti-Rabbit IgG IRDye 800CW (926–32211, LI-COR, 1:10000)).” left out

T1 sequence (Q86U44 2-580 limits assumed): as the sequence (Q86U44 2-580 limits assumed) above
T1 sequence (Q9HCE5 whole entry partner): as the sequence (Q9HCE5 whole entry, further chain) above
T2 sequence (Q86U44 354-580): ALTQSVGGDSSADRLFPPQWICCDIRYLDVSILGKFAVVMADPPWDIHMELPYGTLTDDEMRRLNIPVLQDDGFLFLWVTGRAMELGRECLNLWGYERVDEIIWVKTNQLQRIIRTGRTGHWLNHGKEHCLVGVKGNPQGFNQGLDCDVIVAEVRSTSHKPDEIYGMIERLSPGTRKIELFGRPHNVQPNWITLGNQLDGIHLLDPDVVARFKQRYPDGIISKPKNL
T2 sequence (Q9HCE5 107-395 partner limits assumed): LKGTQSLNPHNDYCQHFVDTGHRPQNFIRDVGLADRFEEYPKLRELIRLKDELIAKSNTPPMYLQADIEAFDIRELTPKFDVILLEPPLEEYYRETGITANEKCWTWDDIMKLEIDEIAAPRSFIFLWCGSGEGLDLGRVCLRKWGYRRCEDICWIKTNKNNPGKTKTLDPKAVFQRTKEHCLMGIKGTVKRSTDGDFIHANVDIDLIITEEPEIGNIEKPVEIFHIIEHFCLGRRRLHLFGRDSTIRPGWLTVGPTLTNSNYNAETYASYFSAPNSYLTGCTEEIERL
T2 sequence (Q96SW2 318-442): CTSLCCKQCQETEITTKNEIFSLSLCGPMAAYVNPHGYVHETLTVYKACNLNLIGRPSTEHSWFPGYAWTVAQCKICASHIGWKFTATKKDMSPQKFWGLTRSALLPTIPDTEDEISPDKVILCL
T4 sequence (Q96SW2 whole entry): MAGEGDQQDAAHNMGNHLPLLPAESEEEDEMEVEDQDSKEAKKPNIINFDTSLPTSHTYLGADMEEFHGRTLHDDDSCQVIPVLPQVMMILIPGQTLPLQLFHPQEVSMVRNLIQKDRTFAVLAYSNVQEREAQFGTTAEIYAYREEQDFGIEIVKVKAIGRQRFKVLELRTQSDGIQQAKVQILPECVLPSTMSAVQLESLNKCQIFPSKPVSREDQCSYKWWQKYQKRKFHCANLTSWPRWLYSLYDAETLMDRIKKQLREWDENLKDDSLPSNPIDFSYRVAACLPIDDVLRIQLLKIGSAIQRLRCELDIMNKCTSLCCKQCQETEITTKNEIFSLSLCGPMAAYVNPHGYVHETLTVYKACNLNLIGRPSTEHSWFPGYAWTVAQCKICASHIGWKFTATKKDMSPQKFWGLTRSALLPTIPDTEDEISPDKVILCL

| Compound | METTL3 reduction at highest effect in concentration dependence ([1]; MOLM-13, 1 μM) | MOLM-13 West. blot at 24h 2 μM comp conc. Degradation (%) of METTL3 [1] | TCFA amplitude (mean ± SEM) [2] | ECmax (nM) ± SD [2] [nM] | ECmax [2] | effect on METTL3 level [3] | IC50 [4] [nM] | degradation levels of METTL3 and METTL14 [5] | stabilization of Cereblon (CETSA) [6] | reduction of METTL3 [7] [%] |
| --- | --- | --- | --- | --- | --- | --- | --- | --- | --- | --- |
| CC1(C)CCN(Cc2cc(F)c(N3CC(=O)NC4(CCN(c5cc(NCc6cccc(CNC(=O)CCCNc7cccc8c7C(=O)N(C7CCC(=O)NC7=O)C8=O)c6)ncn5)CC4)C3)cc2F)CC1 (stereo not shown) [Compound 14] | around 50% | 52% and 52 ± 8% | 1.2 ± 0.0 | 250 ± 0 | submicromolar | only a minor effect | 11 ± 1 | comparable to those in MOLM-13 | visible |  |
| CC1(C)CCN(Cc2cc(F)c(N3CC(=O)NC4(CCN(c5cc(NCc6cccc(CNC(=O)CCCCCCCCCCn7cc(CNc8cccc9c8C(=O)N(C8CCC(=O)NC8=O)C9=O)nn7)c6)ncn5)CC4)C3)cc2F)CC1 (stereo not shown) [Compound 20] |  | 42% and 42 ± 13% | 0.6 ± 0.0 | 860 ± 240 | submicromolar | only a minor effect | 200 ± 30 | comparable to those in MOLM-13 |  | 48 |
| CC1(C)CCN(Cc2cc(F)c(N3CC(=O)NC4(CCN(c5cc(NCC6CCN(C(=O)CCCNc7cccc8c7C(=O)N(C7CCC(=O)NC7=O)C8=O)CC6)ncn5)CC4)C3)cc2F)CC1 (stereo not shown) [Compound 22] |  | 46% and 46 ± 6% | 1.1 ± 0.1 | 190 ± 90 |  | only a minor effect | 11 ± 1 | comparable to those in MOLM-13 |  | 64 |
| CC1(C)CCN(Cc2cc(F)c(N3CC(=O)NC4(CCN(c5cc(NCC6CCN(C(=O)CCCCCNc7cccc8c7C(=O)N(C7CCC(=O)NC7=O)C8=O)CC6)ncn5)CC4)C3)cc2F)CC1 (stereo not shown) [Compound 24] |  | 36% and 36 ± 9% | 1.2 ± 0.0 | 470 ± 80 | submicromolar | only a minor effect | 58 ± 12 | comparable to those in MOLM-13 |  |  |
| CC1(C)CCN(Cc2cc(F)c(N3CC(=O)NC4(CCN(c5cc(NCCN6CCN(C(=O)CCCCCNc7cccc8c7C(=O)N(C7CCC(=O)NC7=O)C8=O)CC6)ncn5)CC4)C3)cc2F)CC1 (stereo not shown) [Compound 30] |  |  | 1.0 ± 0.1 | 70 ± 30 | submicromolar | only a minor effect | 27 ± 6 | comparable to those in MOLM-13 |  |  |
